According to EP4353712A1 (Biodol Therapeutics, priority 2022, dated 2024):
Where a name gives a salt, the structure may show the parent alone.

target: T1, FLT3 (Homo sapiens, UniProt P36888); experiment: HTRF binding assay of FL to FLT3 (TR-FRET, SNAP-FLT3 transfected HEK293T cells); settings: HEK293T cells transfected with SNAP-FLT3, labelled with SNAP-Lumi4-Tb; compounds 1 h at room temperature, then FL-d2 (0.5 nM), read after 20 h; 12 dilutions in triplicates, performed twice; read-out: Inhibition of FLT3 binding IC50, binding
T1 construct: expressed in transfected cells; host or cells: HEK293T
T1 sequence (P36888 27-993): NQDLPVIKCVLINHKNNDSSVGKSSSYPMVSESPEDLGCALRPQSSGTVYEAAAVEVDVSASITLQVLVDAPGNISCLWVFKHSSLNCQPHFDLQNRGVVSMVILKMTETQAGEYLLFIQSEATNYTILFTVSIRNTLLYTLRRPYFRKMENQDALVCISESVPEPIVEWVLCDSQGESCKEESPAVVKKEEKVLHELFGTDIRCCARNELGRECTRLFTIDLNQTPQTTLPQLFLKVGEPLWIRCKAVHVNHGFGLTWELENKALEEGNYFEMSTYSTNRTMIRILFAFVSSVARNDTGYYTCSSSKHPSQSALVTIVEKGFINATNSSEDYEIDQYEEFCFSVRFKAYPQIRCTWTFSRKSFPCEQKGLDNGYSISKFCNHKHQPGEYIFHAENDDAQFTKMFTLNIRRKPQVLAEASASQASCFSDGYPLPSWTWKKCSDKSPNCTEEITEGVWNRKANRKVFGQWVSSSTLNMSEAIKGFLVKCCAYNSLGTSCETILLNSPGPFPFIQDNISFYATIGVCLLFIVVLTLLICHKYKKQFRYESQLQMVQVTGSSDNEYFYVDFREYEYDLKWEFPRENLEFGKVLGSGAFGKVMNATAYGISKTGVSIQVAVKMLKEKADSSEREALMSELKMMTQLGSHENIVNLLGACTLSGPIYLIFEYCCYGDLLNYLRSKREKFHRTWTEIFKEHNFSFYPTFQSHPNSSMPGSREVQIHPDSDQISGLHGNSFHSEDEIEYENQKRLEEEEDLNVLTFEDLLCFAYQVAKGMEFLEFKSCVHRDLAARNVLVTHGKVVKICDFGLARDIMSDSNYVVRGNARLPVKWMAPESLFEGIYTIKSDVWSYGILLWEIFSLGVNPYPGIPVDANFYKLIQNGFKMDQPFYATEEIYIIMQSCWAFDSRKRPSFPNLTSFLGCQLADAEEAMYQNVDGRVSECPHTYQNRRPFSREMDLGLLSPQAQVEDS
Protocol: The binding of FL to FLT3 was measured by a Homologous Time-Resolved Fluorescence (HTRF) assay (Degorce et al., Current Chemical Genomics, 2009, 3, 22-32), which involves resonance energy transfer between a donor, Lumi4-Tb-donor-derivatized benzylguanine substrate (SNAP-Lumi4-Tb, excitation: 337 nm, emission: 630 nm, Cisbio, France), transfected in HEK cells, and an acceptor, red fluorescent FL (FL-d2, excitation: 620 nm, emission: 660 nm, Cisbio, France). When FL-d2 binds to the SNAP-Lumi4-Tb-tagged FLT3 receptor, the proximity of both fluorophores allows the time-resolved Förster resonance energy transfer (TR-FRET) signal to occur and the binding is measured as the ratio between the fluorescent emissions at 660 to 620 nm.
The detailed method is described in Rivat et al. (Nature Communications, 2018, 9 :1042). Briefly, HEK293T cells were transfected with a pCDNA3.1 SNAP-FLT3 plasmid by using Lipofectamine (Invitrogen), and were than labelled with SNAP-Lumi4-Tb. Plates containing attached transfected HEK293T cells were incubated with compounds of formula (I) for 1 h at room temperature. A series of 12 dilutions in triplicates was used for each compound and the experiment was performed twice. Then FL-d2 (0.5 nM) was added and the TR-FRET signal was read after 20 h incubation at room temperature with a HTRF-compatible reader (Envision, Perkin Elmer) allowing a donor excitation at 337 nm and a signal collection both at 615 nm and 665 nm (20 flashes, delay 50 µs, integration time 400 µs). Then HTRF ratio, obtained by dividing the acceptor signal (665 nm) by the donor signal (615 nm), was calculated at each concentration of test compounds. Non-specific binding was measured in the presence 50 µM of BDT001 (Rivat et al., ibid.). Concentration giving 50 % inhibition (IC50) were calculated by non-linear regression analysis for a one-site model, with variable slope (Prism®, Graphpad software, USA).

SMILES | IC50 [µM]
CN1CCC(c2ccc(C(=O)Nc3ccc(Cl)c4ncccc34)cc2)CC1 [(30), N-(8-chloroquinolin-5-yl)-4-(1-methylpiperidin-4-yl)benzamide] | 1.9
CN1CCN(c2ccc(C(=O)Nc3ccc(Cl)c4cnccc34)cc2)CC1 [(51), N-(8-chloroisoquinolin-5-yl)-4-(4-methylpiperazin-1-yl)benzamide hydrochloride] | 1.3
CN(C)CCOc1ccc(C(=O)Nc2cccc3cnncc23)cc1 [(19), 4-[2-(dimethylamino)ethoxy]-N-(phthalazin-5-yl)benzamide] | 25
CN1CCN(c2ccc(C(=O)Nc3ccc(F)c4cccnc34)cc2)CC1 [(42), N-(5-fluoroquinolin-8-yl)-4-(4-methylpiperazin-1-yl)benzamide] | 3.1
CN1CCC(c2ccc(C(=O)Nc3cccc4ccncc34)cc2)CC1 [(8), N-(isoquinolin-8-yl)-4-(1-methylpiperidin-4-yl)benzamide] | 0.8
CN1CCC(c2ccc(C(=O)Nc3cccc4cccnc34)c(F)c2)CC1 [(12), 2-fluoro-4-(1-methylpiperidin-4-yl)-N-(quinolin-8-yl)benzamide] | 1.8
CN(C)CCOc1ccc(C(=O)Nc2cccc3ncccc23)c(C(F)(F)F)c1 [(49), 4-(2-(dimethylamino)ethoxy)-N-(quinolin-5-yl)-2-(trifluoromethyl)benzamide] | 2.4
Cc1cc(C(=O)Nc2cccc3ncccc23)ccc1N1CCN(C)CC1 [(29), 3-methyl-4-(4-methylpiperazin-1-yl)-N-(quinolin-5-yl)benzamide] | 1.2
Cc1cc(N2CCN(C)CC2)ccc1C(=O)Nc1cccc2cnccc12 [(45), N-(isoquinolin-5-yl)-2-methyl-4-(4-methylpiperazin-1-yl)benzamide] | 1
CN1CCC(c2ccc(C(=O)Nc3cccc4ncccc34)cc2)CC1 [(6), 4-(1-methylpiperidin-4-yl)-N-(quinolin-5-yl)benzamide] | 1.3
CN1CCC(c2ccc(C(=O)Nc3cccc4cccnc34)cc2)CC1 [(9), 4-(1-methylpiperidin-4-yl)-N-(quinolin-8-yl)benzamide] | 1.5
CN(C)CCOc1ccc(C(=O)Nc2cccc3cccnc23)cc1 [(11), 4-[2-(dimethylamino)ethoxy]-N-(quinolin-8-yl)benzamide] | 2.9
CN1CCC(c2ccc(C(=O)Nc3ccc(F)c4ncccc34)cc2)CC1 [(4), N-(8-fluoroquinolin-5-yl)-4-(1-methylpiperidin-4-yl)benzamide] | 5.3
CN1CCN(c2ccc(C(=O)Nc3cccc4cccnc34)cc2)CC1 [(35), 4-(4-methylpiperazin-1-yl)-N-(quinolin-8-yl)benzamide] | 1.7
CN1CCN(c2ccc(C(=O)Nc3ccc(F)c4ncccc34)cc2)CC1 [(44), N-(8-fluoroquinolin-5-yl)-4-(4-methylpiperazin-1-yl)benzamide] | 3.8
CN(C)CCOc1ccc(C(=O)Nc2cccc3nccnc23)cc1 [(31), 4-[2-(dimethylamino)ethoxy]-N-(quinoxalin-5-yl)benzamide] | 0.7
CN(C)CCOc1ccc(C(=O)Nc2cccc3cnccc23)cc1 [(14), 4-(2-(dimethylamino)ethoxy)-N-(isoquinolin-5-yl)benzamide] | 0.9
Cc1cc(OCCN(C)C)ccc1C(=O)Nc1cccc2ncccc12 [(47), 4-(2-(dimethylamino)ethoxy)-2-methyl-N-(quinolin-5-yl)benzamide] | 1.7
CN(C)CCOc1ccc(C(=O)Nc2ccc(F)c3nccnc23)cc1 [(23), 4-(2-(dimethylamino)ethoxy)-N-(8-fluoroquinoxalin-5-yl)benzamide] | 0.5

SMILES | IC50 [µM]
CN1CCC(c2ccc(C(=O)Nc3cccc4cnccc34)c(S(C)(=O)=O)c2)CC1 [(25), N-(isoquinolin-5-yl)-2-methanesulfonyl-4-(1-methylpiperidin-4-yl)benzamide] | 2.6
CN1CCC(c2ccc(C(=O)Nc3cccc4cnccc34)cc2)CC1 [(7), N-(isoquinolin-5-yl)-4-(l-methylpiperidin-4-yl)benzamide] | 0.8
CN1CCC(c2ccc(C(=O)Nc3cccc4cccnc34)c(C(F)(F)F)c2)CC1 [(18), 4-(1-methylpiperidin-4-yl)-N-(quinolin-8-yl)-2-(trifluoromethyl)benzamide] | 1.7
CN1CCN(c2ccc(C(=O)Nc3cccc4cnccc34)cc2)CC1 [(39), N-(isoquinolin-5-yl)-4-(4-methylpiperazin-1-yl)benzamide] | 0.8
CN1CCN(c2ccc(C(=O)Nc3cccc4ncccc34)cc2)CC1 [(40), 4-(4-methylpiperazin-1-yl)-N-(quinolin-5-yl)benzamide] | 1.7
CN(C)CCOc1ccc(C(=O)Nc2ccc(F)c3cnccc23)cc1 [(33), 4-[2-(dimethylamino)ethoxy]-N-(8-fluoroisoquinolin-5-yl)benzamide] | 2.3
COc1cc(C(=O)Nc2cccc3cnccc23)ccc1C1CCN(C)CC1 [(17), N-(isoquinolin-5-yl)-3-methoxy-4-(1-methylpiperidin-4-yl)benzamide] | 0.9
CN1CCN(c2ccc(C(=O)Nc3cccc4cnccc34)cc2F)CC1 [(24), 3-fluoro-N-(isoquinolin-5-yl)-4-(4-methylpiperazin-1-yl)benzamide] | 1.1
CN(C)CCOc1ccc(C(=O)Nc2cccc3cnccc23)cc1C(F)(F)F [(48), 4-(2-(dimethylamino)ethoxy)-N-(isoquinolin-5-yl)-3-(trifluoromethyl)benzamide] | 1.3
CN(C)CCOc1ccc(C(=O)Nc2ccc(F)c3ccncc23)cc1 [(22), 4-(2-(dimethylamino)ethoxy)-N-(5-fluoroisoquinolin-8-yl)benzamide] | 1.9
Cc1cc(C(=O)Nc2cccc3cccnc23)ccc1OCCN(C)C [(43), 4-(2-(dimethylamino)ethoxy)-3-methyl-N-(quinolin-8-yl)benzamide] | 2.1
CN1CCC(c2ccc(C(=O)Nc3ccc(F)c4ccncc34)cc2)CC1 [(3), N-(5-fluoroisoquinolin-8-yl)-4-(1-methylpiperidin-4-yl)benzamide] | 1.8
CN1CCC(c2ccc(C(=O)Nc3cccc4cnccc34)cc2C#N)CC1 [(21), 3-cyano-N-(isoquinolin-5-yl)-4-(1-methylpiperidin-4-yl)benzamide] | 2
CN(C)CCOc1ccc(C(=O)Nc2ccc(F)c3ncccc23)cc1 [(20), 4-(2-(dimethylamino)ethoxy)-N-(8-fluoroquinolin-5-yl)benzamide] | 6.2
CN1CCC(c2ccc(C(=O)Nc3cccc4ncccc34)cc2C(F)(F)F)CC1 [(27), 4-(1-methylpiperidin-4-yl)-N-(quinolin-5-yl)-3-(trifluoromethyl)benzamide] | 3.6
CN(C)CCOc1ccc(C(=O)Nc2cccc3ccncc23)cc1C#N [(36), 3-cyano-4-(2-(dimethylamino)ethoxy)-N-(isoquinolin-8-yl)benzamide] | 2.5
CN1CCC(c2ccc(C(=O)Nc3ccc(F)c4nccnc34)cc2)CC1 [(5), N-(8-fluoroquinoxalin-5-yl)-4-(1-methylpiperidin-4-yl)benzamide] | 0.4
CN1CCC(c2ccc(C(=O)Nc3ccc(F)c4cccnc34)cc2)CC1 [(1), N-(5-fluoroquinolin-8-yl)-4-(1-methylpiperidin-4-yl)benzamide] | 1.2
